Melting point data for 112 compounds are collected here from a melting point compilation (Tetko et al.).

`O=C(O)C=Cc1ccc(F)cc1C(F)(F)F` displayed a melting point of 182 °C. Turning to `Clc1ccc2c(c1)Oc1cc(Cl)c(Cl)cc1O2`, the melting point was 162 °C. `CC(=O)Oc1ccc(N)cc1`: the melting point was determined as 74 °C. Then `O=c1cccccc1`, with -7 °C; and `N#CN=CNc1ccccc1`, with 138 to 141 °C; and `FC(F)(F)c1nn(CN2CCCCC2)c(=S)n1N=Cc1ccc2c(c1)OCO2`, with 122 °C. The compound `O=c1c(Cl)c(Cl)cnn1-c1ccc(C(F)(F)F)cc1` had a melting point of 139 to 140 °C. Then `CCC1CN2CCC1CC2C(O)c1ccnc2ccc(OC)cc12` (configuration not stated), with 172 °C; and `FC(F)(F)c1cc(-c2ccc3c(c2)OCO3)n[nH]1`, with 177 to 179 °C; and `COc1cc(NC(=S)N(C)C)c(C(c2ccc(C)o2)c2ccc(C)o2)cc1OC`, with 163 °C.

`CN1C(=O)CN=C(c2ccccc2F)c2cc(Cl)ccc21`: the melting point is 296 °C. `OC1(C#CC#CC2(O)CCCCC2)CCCCC1` displayed a melting point of 175 °C. The same measure for `O=C(NCCN=Cc1ccccn1)C(=O)NCc1ccccn1`: 125 °C; for `C#CCN1C(=O)CN=C(c2ccccc2)c2cc(Cl)ccc21`: 141 °C; for `Nc1n[nH]c(S)n1`: 300 °C. For the compound `C(=Nc1ccccc1)c1ccccc1`, the melting point was 54 °C.

Consider `O=C1OC(=O)c2c(I)c(I)c(I)c(I)c21`, for which the melting point was determined as 328 °C. Compound `S=c1[nH]ccn1-c1ccc(Br)cc1` had a melting point of 244 to 246 °C. The same measure for `NNC(=O)c1ccccc1Oc1ccccc1`: 99 to 103 °C; for `CCCCCCCCC(=O)CCCCCC`: 31 °C; for `COc1ccccc1C1(C)CCc2oc3ccc(Br)cc3c2-c2oc(C)cc21` (configuration not stated): 209 °C. Then `Nc1c(Cl)cccc1C(=O)O`, with 190 °C. The same measure for `CC(=O)c1ccc(OC2OC(CO)C(O)C(O)C2O)cc1` (configuration not stated): 196 °C; for `O=C1c2ccccc2-c2ccc(Br)cc21`: 143 to 149 °C; for `CC(=O)OC1CC[C@@]2(C)C(=CC[C@@H]3[C@@H]2CC[C@@]2(C)[C@H]3CC[C@]2(O)C#Cc2ccccc2)C1` (some centres not stated): 147 to 148 °C. As to `O=C(O)c1cc([N+](=O)[O-])cc([N+](=O)[O-])c1Cl`, the melting point was determined as 199 °C. Then `CCOC(=O)C1=C(C)NC(=S)NC1c1ccccc1` (configuration not stated), with 207 to 209 °C; and `O=C(c1ccco1)c1noc(-c2ccc(Br)cc2)c1S(=O)(=O)c1ccccc1`, with 133 °C; and `Cc1cc(C)n(N=Cc2ccc(F)cc2)c(=O)c1C#N`, with 186 to 188 °C. Then `NC1CONC1=O` (configuration not stated), with 156 °C; and `O=C1C=CCN1[C@@H](CO)c1ccccc1`, with 103 °C. The compound `N#Cc1ccc(N)c(N)c1` displayed a melting point of 144 to 145 °C. The same measure for `CCCC(O)C(CC)CO` (configuration not stated): -40 °C.

For the compound `OC[C@@H](O)COCc1ccccc1`, the melting point was 24 to 27 °C. Regarding `Cc1cc(Cl)cc(Cl)c1`, the melting point was determined as 26 °C. For `C=C1C(=O)C2(C)CCC1C2(C)C` (configuration not stated), the melting point came out at 45 °C. The same measure for `CC1(C)C=[N+]([O-])C(C)(C)C1`: 53 to 59 °C. The same measure for `O=C1CCC(=O)C1`: 152 °C; for `ClC#CCl`: -66 °C; for `NNC(=O)C1CCCCC1`: 153 to 155 °C. The same measure for `O=[N+]([O-])c1ccc2c(c1)CCN2`: 93 °C; for `CCCCC(C)CCO` (configuration not stated): -90 °C; for `CCc1cccc2c1CCCC2`: -44.5 °C. As to `CC(O)=NNC(N)=O`, the melting point amounted to 165 °C. Then `C(=C1c2ccccc2C2C1OC1/C(=C\c3ccccc3)c3ccccc3C12)c1ccccc1` (configuration not stated), with 214 to 215 °C; and `CN1C(=O)c2ccccc2C1O` (configuration not stated), with 133 °C; and `COC(=O)c1ccccc1S(N)(=O)=O`, with 125 to 127 °C. Then `Cc1cc(C)c(C2(C)CC(C(=NNC(N)=O)c3cc4cc(Br)ccc4o3)C2)c(C)c1` (configuration not stated), with 230 to 232 °C; and `CC1=C(O)C(=O)CC1`, with 106 °C; and `CC1CCCC=CC2CC(O)CC2C(O)C=CC(=O)O1` (configuration not stated), with 201 to 205 °C. Then `Cc1nc(-c2cnccn2)sc1C(=O)O`, with 237 to 238 °C; and `OCCCCCCCCl`, with 11 °C.

As to `CNCc1csc(C2CCN(C(=O)OC(C)(C)C)CC2)n1`, the melting point was in the range of 43 to 47 °C.

`Cc1ccc(C(=O)N(NC(=O)c2ccccc2)C(C)(C)C)cc1`: the melting point was 188 °C. As to `CCCCOc1ccc(-c2nnc3n2NC(c2ccc(O)c(OC)c2)S3)cc1` (configuration not stated), the melting point turned out to be 144 °C. The same measure for `Cc1cc(C#N)ccc1F`: 55 °C; for `OCCCc1nc2cc(C(F)(F)F)ccc2[nH]1`: 134 to 135 °C; for `C=CC(=O)NC(O)C(=O)O` (configuration not stated): 123 to 127 °C. The same measure for `CON=C(C(=O)NC1C(=O)N2C(C(=O)OCOC(=O)C(C)(C)C)=C(C=Cc3scnc3C)CSC12)c1csc(N)n1` (configuration not stated): 128 °C; for `C1COCO1`: -26 °C; for `Cc1nc(-c2cnccn2)sc1C(=O)CBr`: 100 °C.

`CCCCCCCCCCOC(=O)CCCCCCCCC` registered a melting point of 9.7 °C. The same measure for `N#Cc1ccc[nH]c1=O`: 222 to 225 °C; for `C[Si](C)(C)C#Cc1ccc(C#C[Si](C)(C)C)cc1`: 120 °C.

As for `CN1CCC(N2CCNCC2)CC1`, the melting point came out at 31 °C.

With `FC(F)(F)C(F)(F)C(F)(F)C(F)(F)C(F)(F)C(F)(F)C(F)(F)C(F)(F)C(F)(F)C(F)(F)I`, the melting point was found to be 66 °C.

Compound `Clc1cc(Cl)c2nsnc2c1Cl` registered a melting point of 122 °C.

Turning to `CCOC(=O)C1C(c2ccc(C)cc2)C(C(=O)OCC)C(O)(C(F)(F)F)NC1(O)C(F)(F)F` (configuration not stated), the melting point came to 93 °C. Then `Cc1cc(C)c(CC(O)c2cc3ccccc3o2)c(C)c1` (configuration not stated), with 75 to 76 °C; and `Nc1ccc(Cl)cc1O`, with 152 to 157 °C; and `COc1ccc2cc(C(O)C(C)O)ccc2c1` (configuration not stated), with 115 °C. Then `CC(C)(C)C(C)(C)Cl`, with 136 °C; and `O=C(O)Cc1ccc(O)c(F)c1`, with 132 to 134 °C. With `Cc1n[nH]c(C)c1-c1ccc(-c2ccccc2)cc1`, the melting point fell in the range of 221 to 222 °C. Then `O=C(NO)c1ccccc1`, with 128 °C. The same measure for `O=C(O)c1cc(I)c(I)c(I)c1`: 292 °C; for `O=[N+]([O-])c1ccc(Cl)nc1Cl`: 64 °C. As for `Fc1cc(Br)c(Br)cc1F`, the melting point came to 33 °C. Then `Cc1c(C(=O)CBr)sc2ccccc12`, with 98 to 99 °C. The compound `CCNC=C(C(=O)OCC)C(=O)c1cnc(Cl)c(F)c1` yielded a melting point of 122 to 124 °C. Then `N#C/C(=C\c1ccc(F)cc1)c1nc2ccccc2c(=O)[nH]1`, with 305 to 306 °C. Then `CCC(=O)Nc1ccccc1`, with 106 °C. Then `O=C(Nc1nc2ccccc2s1)C(F)(F)C(F)(F)C(F)(F)C(F)(F)C(F)(F)C(F)(F)C(F)(F)C(F)(F)F`, with 168 to 170 °C; and `O=C(O)C=Cc1cccc(C(F)(F)F)c1`, with 136 °C.

`CC1(C)OC(=O)C(=Cc2ccccc2F)C(=O)O1`: the melting point came out at 142 °C.

Compound `Cc1cc(C(F)(F)F)c(C#N)c(=O)[nH]1` returned a melting point of 233 to 235 °C. Then `CC12CCC3C(CCC(CC(=O)O)C3(C)CC(=O)O)C1CCC2=O` (configuration not stated), with 223 to 224 °C; and `COc1cc2c(cc1OC)Cc1cc(OC)c(OC)cc1Cc1cc(OC)c(OC)cc1C2`, with 222 to 228 °C; and `O=C(O)c1cc2ccccc2cc1C(=O)O`, with 238 °C.

As to `Cn1cnc2ncnc(N)c21`, the melting point is 323 °C. Then `CCOC(=O)/C(=N\Nc1cc(Cl)ccc1Cl)C(=O)C(F)(F)F`, with 146 °C; and `COCCCn1c(-c2ccc(C(C)(C)C)cc2)n[nH]c1=S`, with 116 to 118 °C. Then `Cc1ccc(CS(=O)(=O)Cl)cc1`, with 80 to 85 °C. `O=C1c2ccccc2C2NCCCN12` (configuration not stated) came in with a melting point of 130 to 132 °C.

In turn, `O=C(COC(=O)c1ccccc1)c1ccccc1` had a melting point of 119 °C. Consider `Cc1cc(C)c(C#N)c(O)n1`, for which the melting point was in the range of 285 to 287 °C. As for `CCCCCc1ccc(C(C)=NO)cc1`, the melting point was found to be 68 °C.

Turning to `COc1ccccc1C(=S)N1CCOCC1`, the melting point is 86 °C. Then `Sc1c(Cl)c(Cl)cc(Cl)c1Cl`, with 105 to 107 °C; and `CC#CC(C)C`, with -110 °C. The same measure for `COc1cc(O)c(C(=O)c2ccccc2)c(O)c1`: 130 °C. Take `O=C(C=Cc1cccc(O)c1)c1ccccc1`: the melting point fell in the range of 156 to 158 °C.

`NCc1ccc2c(Br)cccc2c1` registered a melting point of 111 to 112 °C. As to `CC(C)=CCC(C#N)(CC=C(C)C)C(=O)O`, the melting point lay within 70 to 71 °C. The same measure for `N=C1SCCN1CC(=O)c1ccc([N+](=O)[O-])cc1`: 210 °C. Then `c1ccc2c(P(c3cccc4ccccc34)c3cccc4ccccc34)cccc2c1`, with 265 to 268 °C. Then `Sc1nc2cc(Cl)c(Cl)cc2[nH]1`, with 300 °C; and `CCCCCC(=O)c1ccc(O)cc1O`, with 57 °C; and `O=c1[nH]nc2oc3ccccc3cc1-2`, with 220 °C. For the compound `Nc1ccc(S(=O)c2ccc(N)cc2)cc1`, the melting point was 175 °C.

In turn, `Nc1ncnc2c1ncn2C1OC(COP(=O)(O)O)C(O)C1O` (configuration not stated) gave a melting point of 213 °C. The same measure for `c1ccc2c(c1)-c1nc3ccccc3nc1-2`: 203 °C.

The term melting point denotes the temperature of the solid-liquid transition.
